The values that follow come from patent US20240208992A1, “MACROCYCLES AS CFTR MODULATORS” (Idorsia Pharmaceuticals Ltd, priority 2021, published 2024).

This assay deals with human F508del-CFTR (Homo sapiens, UniProt P13569, DEL508-508). Nature of the assay: F508del-CFTR cell surface expression (corrector activity), DiscoveRx ß-galactosidase complementation chemiluminescence assay in recombinant U2OS cell line.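 As to all read-outs here: U2OS cells co-expressing ProLink-tagged F508del-CFTR and a membrane-anchored enzyme acceptor, where more surface CFTR restores β-galactosidase activity measured by chemiluminescence.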 The settings on record: U2OS cell line, 16h compound incubation; for EC50: EC50, F508del-CFTR cell surface expression, geomean values; for Emax: U2OS, in relation to the Emax of the corrector lumacaftor (=100%), arithmetic mean values.

For orientation: EC50 means the concentration needed to bring the measured effect to its halfway point. In general, Emax refers to the greatest response seen or fitted, relative to the assay's reference.

human F508del-CFTR, sequence (P13569 with tags, fused parts or gaps DEL508-508): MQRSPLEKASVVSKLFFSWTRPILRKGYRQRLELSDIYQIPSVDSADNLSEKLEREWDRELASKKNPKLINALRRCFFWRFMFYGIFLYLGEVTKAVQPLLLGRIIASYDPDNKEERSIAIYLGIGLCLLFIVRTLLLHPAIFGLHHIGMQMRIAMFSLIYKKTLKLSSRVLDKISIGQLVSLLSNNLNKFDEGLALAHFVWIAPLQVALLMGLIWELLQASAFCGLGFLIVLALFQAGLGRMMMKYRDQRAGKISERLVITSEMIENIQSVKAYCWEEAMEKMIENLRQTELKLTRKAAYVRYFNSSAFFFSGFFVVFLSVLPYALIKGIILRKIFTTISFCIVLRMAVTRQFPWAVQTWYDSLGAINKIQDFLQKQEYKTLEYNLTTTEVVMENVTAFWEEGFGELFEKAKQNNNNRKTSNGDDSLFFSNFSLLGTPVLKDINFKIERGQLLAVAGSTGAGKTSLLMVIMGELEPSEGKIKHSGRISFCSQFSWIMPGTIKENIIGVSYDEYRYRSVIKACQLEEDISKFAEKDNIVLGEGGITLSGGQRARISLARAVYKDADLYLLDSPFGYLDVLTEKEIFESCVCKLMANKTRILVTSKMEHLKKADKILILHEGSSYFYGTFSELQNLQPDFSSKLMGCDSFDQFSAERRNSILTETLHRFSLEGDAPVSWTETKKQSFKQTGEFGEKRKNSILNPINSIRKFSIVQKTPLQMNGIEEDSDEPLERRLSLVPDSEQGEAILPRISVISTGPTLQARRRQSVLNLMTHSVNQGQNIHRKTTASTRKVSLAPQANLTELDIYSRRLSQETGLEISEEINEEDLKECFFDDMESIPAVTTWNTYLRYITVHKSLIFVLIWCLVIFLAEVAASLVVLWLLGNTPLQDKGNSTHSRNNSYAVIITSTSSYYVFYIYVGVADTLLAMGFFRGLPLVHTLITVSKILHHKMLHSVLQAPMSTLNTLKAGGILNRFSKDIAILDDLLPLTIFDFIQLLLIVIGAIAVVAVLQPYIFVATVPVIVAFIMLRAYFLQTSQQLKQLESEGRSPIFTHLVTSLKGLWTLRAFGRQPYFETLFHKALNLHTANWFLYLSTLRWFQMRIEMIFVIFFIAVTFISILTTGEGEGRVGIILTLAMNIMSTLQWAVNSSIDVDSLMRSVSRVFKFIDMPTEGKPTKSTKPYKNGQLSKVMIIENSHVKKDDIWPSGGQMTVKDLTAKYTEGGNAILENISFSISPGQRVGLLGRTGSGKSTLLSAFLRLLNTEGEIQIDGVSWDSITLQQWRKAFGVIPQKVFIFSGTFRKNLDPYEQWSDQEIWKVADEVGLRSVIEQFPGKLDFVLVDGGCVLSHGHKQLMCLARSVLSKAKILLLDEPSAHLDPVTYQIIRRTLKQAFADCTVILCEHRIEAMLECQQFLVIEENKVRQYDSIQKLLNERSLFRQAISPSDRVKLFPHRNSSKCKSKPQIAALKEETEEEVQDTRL

Consider `COc1cccc(CCNC(=O)[C@@H]2CC(=O)N(C)[C@@H](CC(C)C)C(=O)N3CCN(C(=O)OCC(Cl)(Cl)Cl)C[C@@H]3C(=O)N[C@H](Cc3ccccc3)COc3ccc4ccccc4c3C(=O)N2)c1` [Example 369, 2,2,2-trichloroethyl (4aR,7R,18S,22S)-7-benzyl-22-isobutyl-18-((3-methoxyphenethyl)carbamoyl)-21-methyl-5,16,20,23-tetraoxo-1,2,4,4a,5,6,7,8,16,17,18,19,20,21,22,23-hexadecahydro-3H-naphtho[1,2-p]pyrazino[2,1-f][1]oxa[4,7,10,14]tetraazacycloheptadecine-3-carboxylate], for which the half-maximal effective concentration (EC50) was found to be 107 nM and the maximal effect (Emax) worked out at 243%.

With `CC(C)C[C@H]1C(=O)N2CCOC[C@@H]2C(=O)N[C@H](Cc2ccccc2)COc2ccc3ccccc3c2C(=O)N[C@H](C(=O)NCCc2nc3c(s2)CCC3)CC(=O)N1C` [Example 370, (4aR,7R,18S,22S)-7-benzyl-N-(2-(5,6-dihydro-4H-cyclopenta[d]thiazol-2-yl)ethyl)-22-isobutyl-21-methyl-5,16,20,23-tetraoxo-1,2,4,4a,5,6,7,8,16,17,18,19,20,21,22,23-hexadecahydronaphtho[1,2-p][1,4]oxazino[3,4-f][1]oxa[4,7,10,14]tetraazacycloheptadecine-18-carboxamide], the concentration for a half-maximal effect (EC50) came to 388 nM and the Emax is 229%.

Regarding `CC(C)C[C@H]1C(=O)N2CCOC[C@@H]2C(=O)N[C@H](Cc2ccccc2)COc2ccc3ccccc3c2C(=O)N[C@H](C(=O)NCCc2cccc(OC(F)F)c2)CC(=O)N1C` [Example 371, (4aR,7R,18S,22S)-7-benzyl-N-(3-(difluoromethoxy)phenethyl)-22-isobutyl-21-methyl-5,16,20,23-tetraoxo-1,2,4,4a,5,6,7,8,16,17,18,19,20,21,22,23-hexadecahydronaphtho[1,2-p][1,4]oxazino[3,4-f][1]oxa[4,7,10,14]tetraazacycloheptadecine-18-carboxamide], the EC50 turned out to be 226 nM and the maximal response (Emax) was 180%.

For the molecule `COc1cccc(CCNC(=O)[C@@H]2CC(=O)N(C)[C@@H](CC(C)C)C(=O)N3CCN(CC(C)C)C[C@@H]3C(=O)N[C@H](Cc3ccccc3)COc3cnc4ccccc4c3C(=O)N2)c1` [Example 372, (9S,13S,19aR,22R)-22-benzyl-13,18-diisobutyl-N-(3-methoxyphenethyl)-12-methyl-7,11,14,20-tetraoxo-7,8,9,10,11,12,13,14,17,18,19,19a,20,21,22,23-hexadecahydro-16H-pyrazino[2′,11:6,7][1]oxa[4,7,10,14]tetraazacycloheptadecino[17,16-c]quinoline-9-carboxamide], the EC50 turned out to be 72 nM and the Emax turned out to be 360%.

`COc1cccc(CCNC(=O)[C@@H]2CC(=O)N(C)[C@@H](CC(C)C)C(=O)N3CCN(CC(C)C)C[C@H]3C(=O)N[C@H](Cc3ccccc3)COc3cnc4ccccc4c3C(=O)N2)c1` [Example 373, (9S,13S,19aS,22R)-22-benzyl-13,18-diisobutyl-N-(3-methoxyphenethyl)-12-methyl-7,11,14,20-tetraoxo-7,8,9,10,11,12,13,14,17,18,19,19a,20,21,22,23-hexadecahydro-16H-pyrazino[2′,11:6,7][1]oxa[4,7,10,14]tetraazacycloheptadecino[17,16-c]quinoline-9-carboxamide]: the concentration giving a half-maximal response (EC50) amounted to 200 nM and the maximal effect (Emax) turned out to be 149%.

For the molecule `COc1cccc(CCNC(=O)[C@@H]2CC(=O)N(C)[C@@H](CC(C)C)C(=O)N3CCN(C(C)C)C[C@@H]3C(=O)N[C@H](Cc3ccccc3)COc3cnc4ccccc4c3C(=O)N2)c1` [Example 374, (9S,13S,19aR,22R)-22-benzyl-13-isobutyl-18-isopropyl-N-(3-methoxyphenethyl)-12-methyl-7,11,14,20-tetraoxo-7,8,9,10,11,12,13,14,17,18,19,19a,20,21,22,23-hexadecahydro-16H-pyrazino[2′,1′:6,7][1]oxa[4,7,10,14]tetraazacycloheptadecino[17,16-c]quinoline-9-carboxamide], the half-maximal effective concentration (EC50) was found to be 102 nM and the Emax came to 333%.

On to `Cc1cc(CCNC(=O)[C@@H]2CC(=O)N(C)[C@@H](CC(C)C)C(=O)N3CCN(C(C)C)C[C@@H]3C(=O)N[C@H](Cc3ccccc3)COc3cnc4ccccc4c3C(=O)N2)on1` [Example 375, (9S,13S,19aR,22R)-22-benzyl-13-isobutyl-18-isopropyl-12-methyl-N-(2-(3-methylisoxazol-5-yl)ethyl)-7,11,14,20-tetraoxo-7,8,9,10,11,12,13,14,17,18,19,19a,20,21,22,23-hexadecahydro-16H-pyrazino[2′,1′:6,7][1]oxa[4,7,10,14]tetraazacycloheptadecino[17,16-c]quinoline-9-carboxamide], for which the EC50 stood at 461 nM and the Emax amounted to 316%.

In the case of `COc1cccc(CCNC(=O)[C@@H]2CC(=O)N(C)[C@@H](CC(C)C)C(=O)N3CC=CC[C@@H]3C(=O)N[C@H](Cc3ccccc3)COc3ccc4ccccc4c3C(=O)N2)c1` [Example 376, (4aR,7R,18S,22S)-7-benzyl-22-isobutyl-N-(3-methoxyphenethyl)-21-methyl-5,16,20,23-tetraoxo-4,4a,5,6,7,8,16,17,18,19,20,21,22,23-tetradecahydro-1H-naphtho[1,2-p]pyrido[2,1-f][1]oxa[4,7,10,14]tetraazacycloheptadecine-18-carboxamide], the half-maximal effective concentration (EC50) turned out to be 156 nM and the Emax was 284%.

Take `COc1cc(CCNC(=O)[C@@H]2CC(=O)N(C)[C@@H](CC(C)C)C(=O)N3CCCC[C@@H]3C(=O)N[C@H](Cc3ccccc3)COc3ccc4nc(C)n(C)c4c3C(=O)N2)cc(OC)c1` [Example 377, (8S,12S,18aR,21R)-21-benzyl-N-(3,5-dimethoxyphenethyl)-12-isobutyl-4,5,11-trimethyl-6,10,13,19-tetraoxo-6,7,8,9,10,11,12,13,16,17,18,18a,19,20,21,22-hexadecahydro-5H,15H-imidazo[4′,5′:5,6]benzo[1,2-p]pyrido[2,1-f][1]oxa[4,7,10,14]tetraazacycloheptadecine-8-carboxamide]: the EC50 was 704 nM and the maximal response (Emax) was 111%.

As to `CC(C)C[C@H]1C(=O)N2CCOC[C@@H]2C(=O)N[C@H](Cc2ccccc2)COc2ccc3ccccc3c2C(=O)N[C@H](C(=O)NCCc2cccc(Br)c2)CC(=O)N1C` [Example 378, (4aR,7R,18S,22S)-7-benzyl-N-(3-bromophenethyl)-22-isobutyl-21-methyl-5,16,20,23-tetraoxo-1,2,4,4a,5,6,7,8,16,17,18,19,20,21,22,23-hexadecahydronaphtho[1,2-p][1,4]oxazino[3,4-f][1]oxa[4,7,10,14]tetraazacycloheptadecine-18-carboxamide], the EC50 is 45 nM and the Emax worked out at 138%.

Consider `Cc1nc2ccc3c(c2o1)C(=O)N[C@H](C(=O)NCCc1ccc2c(c1)OCO2)CC(=O)N(C)[C@@H](CC(C)C)C(=O)N(CCC1CCCCC1)CC(=O)N[C@H](Cc1ccccc1)CO3` [Example 379, (8R,14S,18S)-N-(2-(benzo[d][1,3]dioxol-5-yl)ethyl)-8-benzyl-12-(2-cyclohexylethyl)-14-isobutyl-2,15-dimethyl-10,13,16,20-tetraoxo-7,8,9,10,11,12,13,14,15,16,17,18,19,20-tetradecahydrooxazolo[4′,5′:5,6]benzo[1,2-p][1]oxa[4,7,10,14]tetraazacycloheptadecine-18-carboxamide], for which the half-maximal effective concentration (EC50) was 76 nM and the Emax was determined as 312%.

With `COc1cccc(CCNC(=O)[C@@H]2CC(=O)N(C)[C@@H](CC(C)C)C(=O)N(CCC3CCCCC3)CC(=O)N[C@H](Cc3ccccc3)COc3ccc4nc(C)oc4c3C(=O)N2)c1` [Example 380, (8R,14S,18S)-8-benzyl-12-(2-cyclohexylethyl)-14-isobutyl-N-(3-methoxyphenethyl)-2,15-dimethyl-10,13,16,20-tetraoxo-7,8,9,10,11,12,13,14,15,16,17,18,19,20-tetradecahydrooxazolo[4′,5′:5,6]benzo[1,2-p][1]oxa[4,7,10,14]tetraazacycloheptadecine-18-carboxamide], the EC50 came out at 65 nM and the maximal effect (Emax) worked out at 325%.

On to `[2H]C([2H])([2H])Oc1cccc(CCNC(=O)[C@@H]2CC(=O)N(C)[C@@H](CC(C)C)C(=O)N(CCC3CCCCC3)CC(=O)N[C@H](Cc3ccccc3)COc3ccc4nc(C)oc4c3C(=O)N2)c1` [Example 381, (8R,14S,18S)-8-benzyl-12-(2-cyclohexylethyl)-14-isobutyl-N-(3-(methoxy-d3)phenethyl)-2,15-dimethyl-10,13,16,20-tetraoxo-7,8,9,10,11,12,13,14,15,16,17,18,19,20-tetradecahydrooxazolo[4′,5′:5,6]benzo[1,2-p][1]oxa[4,7,10,14]tetraazacycloheptadecine-18-carboxamide], for which the EC50 was 68 nM and the maximum response (Emax) amounted to 322%.

With `CC(C)C[C@H]1C(=O)N(CCC2CCCCC2)CC(=O)N[C@H](Cc2ccccc2)COc2cnc3c(F)cccc3c2C(=O)N[C@H](C(=O)NCCc2ccc3c(c2)OCO3)CC(=O)N1C` [Example 382, (3S,7S,13R)-N-(2-(benzo[d][1,3]dioxol-5-yl)ethyl)-13-benzyl-9-(2-cyclohexylethyl)-18-fluoro-7-isobutyl-6-methyl-1,5,8,11-tetraoxo-1,2,3,4,5,6,7,8,9,10,11,12,13,14-tetradecahydro-[1]oxa[4,7,10,14]tetraazacycloheptadecino[17,16-c]quinoline-3-carboxamide], the concentration for a half-maximal effect (EC50) was found to be 44 nM and the maximal response (Emax) is 264%.

As to `COc1cccc(CCNC(=O)[C@@H]2CC(=O)N(C)[C@@H](CC(C)C)C(=O)N(CCC3CCCCC3)CC(=O)N[C@H](Cc3ccccc3)COc3cnc4c(F)cccc4c3C(=O)N2)c1` [Example 383, (3S,7S,13R)-13-benzyl-9-(2-cyclohexylethyl)-18-fluoro-7-isobutyl-N-(3-methoxyphenethyl)-6-methyl-1,5,8,11-tetraoxo-1,2,3,4,5,6,7,8,9,10,11,12,13,14-tetradecahydro-[1]oxa[4,7,10,14]tetraazacycloheptadecino[17,16-c]quinoline-3-carboxamide], the EC50 turned out to be 65 nM and the Emax was found to be 317%.
